Data set [1] relates to C2C12. Put plainly: Antidiabetic activity in mouse C2C12 cells assessed as increase in glucose uptake incubated for 30 mins. It is filed as functional, cell-based.
The test system of data set [2] is Rattus norvegicus. Put plainly: Effect on serum ALT level in dexamethasone-induced Wistar rat model at 17.5 mg/kg, sc administered once daily for 11 days and fasted for 12 hrs at end of the experimental period by biochemical analysis. The settings on record: time 11.5 day. It is filed as functional, organism-based.
Data set [3] relates to Rattus norvegicus. Put plainly: Hypolipidemic activity against dexamethasone-induced Wistar rat model assessed as decrease in serum LDL-c level at 17.5 mg/kg, sc administered once daily for 11 days and fasted for 12 hrs at end of the experimental period. It is filed as functional, organism-based. The settings on record: time 11.5 day.
The subject of data set [4] is Rattus norvegicus. The data set is described as follows: Antidiabetic activity against dexamethasone-induced Wistar rat model assessed as decrease in serum VLDL level at 17.5 mg/kg, sc administered once daily for 11 days and fasted for 12 hrs at end of the experimental period. Type of data set: functional, organism-based. The note with it: time 11.5 day.
Data set [5] has as its system C2C12. Put plainly: Upregulation of PPAR-gamma expression in mouse C2C12 cells by ELISA analysis. The settings on record: dose 6.25-100 µM. Type of data set: functional, cell-based. In general terms: An ELISA detects its analyte on a solid surface through an enzyme-linked reagent.
Data set [6] has as its system Rattus norvegicus. Put plainly: Hypolipidemic activity against dexamethasone-induced Wistar rat model assessed as decrease in serum triglyceride level at 17.5 mg/kg, sc administered once daily for 11 days and fasted for 12 hrs at end of the experimental period. Type of data set: functional, organism-based. The note with it: time 11.5 day.
Data set [7] concerns Rattus norvegicus. Put plainly: Effect on serum AST level in dexamethasone-induced Wistar rat model at 17.5 mg/kg, sc administered once daily for 11 days and fasted for 12 hrs at end of the experimental period by biochemical analysis. Type of data set: functional, organism-based. The settings on record: time 11.5 day.
Data set [8] has as its system Rattus norvegicus. The data set is described as follows: Hypolipidemic activity against dexamethasone-induced Wistar rat model assessed as decrease in serum HDL-c level at 17.5 mg/kg, sc administered once daily for 11 days and fasted for 12 hrs at end of the experimental period. Type of data set: functional, organism-based. The note with it: time 11.5 day.
Data set [9] concerns Rattus norvegicus. The data set is described as follows: Antidiabetic activity against dexamethasone-induced Wistar rat model assessed as decrease in serum glucose level at 17.5 mg/kg, sc administered once daily for 11 days and fasted for 12 hrs at end of the experimental period. It is filed as functional, organism-based. The note with it: time 11.5 day.
Data set [10] deals with Rattus norvegicus. Put plainly: Antidiabetic activity against dexamethasone-induced Wistar rat diabetic model assessed as restoration of histopathological changes at 17.5 mg/kg, sc administered once daily for 11 days and fasted for 12 hrs at end of the experimental period by hematoxylin and eosin staining based microscopic analysis. Type of data set: functional, organism-based. The settings on record: time 11.5 day.

The test system of data set [11] is Rattus norvegicus. Put plainly: Hypolipidemic activity against dexamethasone-induced Wistar rat model assessed as decrease in serum TG level at 17.5 mg/kg, sc administered once daily for 11 days and fasted for 12 hrs at end of the experimental period. Type of data set: functional, organism-based. The note with it: time 11.5 day.
The subject of data set [12] is C2C12. The data set is described as follows: Cytotoxicity against mouse C2C12 cells assessed as reduction in cell viability at 100 to 200 uM incubated for 24 hrs by MTT assay. It is filed as toxicity, cell-based. The settings on record: c2c12, 24 h, dose 100-200 µM.
Data set [13] concerns C2C12. Put plainly: Upregulation of PPAR-gamma expression in mouse C2C12 cells at 1 uM by ELISA analysis. Type of data set: functional, cell-based.
The test system of data set [14] is Rattus norvegicus. The data set is described as follows: Hypolipidemic activity against dexamethasone-induced sc dosed Wistar rat model assessed as decrease in serum TG level administered once daily for 11 days and fasted for 12 hrs at end of the experimental period. It is filed as functional, organism-based. The note with it: time 11.5 day.
Data set [15] relates to Rattus norvegicus. The data set is described as follows: Hypolipidemic activity against dexamethasone-induced sc dosed Wistar rat model assessed as decrease in serum HDL-c level administered once daily for 11 days and fasted for 12 hrs at end of the experimental period. Type of data set: functional, organism-based. The settings on record: time 11.5 day.
For data set [16], the system named is Rattus norvegicus. Put plainly: Effect on serum AST level in dexamethasone-induced sc dosed Wistar rat model administered once daily for 11 days and fasted for 12 hrs at end of the experimental period by biochemical analysis. It is filed as functional, organism-based. The settings on record: time 11.5 day.
Data set [17] concerns Rattus norvegicus. The data set is described as follows: Effect on serum ALT level in dexamethasone-induced sc dosed Wistar rat model administered once daily for 11 days and fasted for 12 hrs at end of the experimental period by biochemical analysis. It is filed as functional, organism-based. The note with it: time 11.5 day.
Data set [18] deals with Rattus norvegicus. The data set is described as follows: Antidiabetic activity against dexamethasone-induced sc dosed Wistar rat model assessed as decrease in serum glucose level administered once daily for 11 days and fasted for 12 hrs at end of the experimental period. The note with it: time 11.5 day. Type of data set: functional, organism-based.
Data set [19] deals with Rattus norvegicus. Put plainly: Hypolipidemic activity against dexamethasone-induced sc dosed Wistar rat model assessed as decrease in serum triglyceride level administered once daily for 11 days and fasted for 12 hrs at end of the experimental period. Type of data set: functional, organism-based. The note with it: time 11.5 day.
For data set [20], the system named is Rattus norvegicus. The data set is described as follows: Hypolipidemic activity against dexamethasone-induced sc dosed Wistar rat model assessed as decrease in serum LDL-c level administered once daily for 11 days and fasted for 12 hrs at end of the experimental period. It is filed as functional, organism-based. The settings on record: time 11.0 day.
For data set [21], the system named is Rattus norvegicus. Put plainly: Antidiabetic activity against dexamethasone-induced sc dosed Wistar rat model assessed as decrease in serum VLDL level administered once daily for 11 days and fasted for 12 hrs at end of the experimental period. The note with it: time 11.5 day. It is filed as functional, organism-based.
In data set [22] the test system is Rattus norvegicus. The data set is described as follows: Antidiabetic activity against dexamethasone-induced sc dosed Wistar rat diabetic model assessed as restoration of histopathological changes administered once daily for 11 days and fasted for 12 hrs at end of the experimental period by hematoxylin and eosin staining based microscopic analysis. It is filed as functional, organism-based. The note with it: time 11.5 day.

Calls of active or inactive are those of the source. The calls are words filed in the database; no cut-off is given here.

Consider `O=C(CN1C(=O)S/C(=C\c2cccs2)C1=O)Nc1cc(Cl)c(Cl)cc1Cl`, for which the outcome in [1], in [2], in data set [3], in data set [4], in data set [6] and in [7] was Active. Further, the result in data set [8], in data set [9], in [10] and in [11] was Active. In addition, the values for the Activity result in data set [5] and in data set [12] were “Dose-Dependent Effect” and “Non-Toxic”, respectively.
With `CCc1ccc(CCOc2ccc(CC3SC(=O)NC3=O)cc2)nc1` (stereo unspecified), in [13], the result was Active.
Regarding `Cc1c(Cl)cccc1NC(=O)CN1C(=O)S/C(=C\c2cccs2)C1=O`, the result in data set [14], in [1], in [15], in data set [16], in [17] and in data set [18] was Active. The result in data set [19], in [20], in data set [21] and in [22] was Active. In addition, the Activity entry in data set [12] is on record as “Non-Toxic”.
On to `O=C(CN1C(=O)S/C(=C\c2cccs2)C1=O)Nc1cccc(C(F)(F)F)c1`, for which the result in data set [1], in data set [2], in [3], in [4], in data set [6] and in data set [7] was Active. For the same compound, the result in [8], in [9], in [10] and in data set [11] was Active. For the same compound, the values for the Activity result in data set [5] and in data set [12] were “Dose-Dependent Effect” and “Non-Toxic”, respectively.

The values are drawn from ChEMBL document CHEMBL5356949, “Development of novel thiazolidine-2,4-dione derivatives as PPAR-γ agonists through design, synthesis, computational docking, MD simulation, and comprehensive in vitro and in vivo evaluation” (RSC Med Chem, 2023).
